# Patent US10633407B2, “14-membered ketolides and methods of their preparation and use” (President and Fellows of Harvard College, priority 2014, dated 2020)
# Like-named read-outs stand apart in the source and are kept apart here.
# Assays:
# Assay in all cases: CLSI broth dilution MIC determination
# Type in all cases: cell-based
# E. coli ATCC 25922 = test system: E. coli ATCC 25922
# Procedure, shortened: (§1)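 CLSI broth-dilution MIC. Controls: azithromycin, solithromycin (many cases). Macrolide-resistance genotypes constitutive or inducible.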
# E. coli CTX-M-14 = test system: E. coli CTX-M-14
# Procedure, shortened: as §1
# E. coli NDM-1 = test system: E. coli NDM-1
# Procedure, shortened: as §1
# E. coli TEM-1 = test system: E. coli TEM-1
# Procedure, shortened: as §1
# H. influenzae ATCC49247 = test system: H. influenzae ATCC49247
# Procedure, shortened: as §1
# K. pneumoniae TEM-10 = test system: K. pneumoniae TEM-10
# S. aureus ATCC 29213 = test system: S. aureus ATCC 29213
# Procedure, shortened: as §1
# S. aureus MRSA: USA100 = test system: S. aureus MRSA: USA100
# Procedure, shortened: as §1
# S. aureus MRSA: USA300 = test system: S. aureus MRSA: USA300
# Procedure, shortened: as §1
# S. aureus USA600, GISA = test system: S. aureus USA600, GISA
# Procedure, shortened: as §1
# S. aureus erm A genotype = test system: S. aureus erm A genotype
# Procedure, shortened: as §1
# S. pneumoniae ATCC 49619 = test system: S. pneumoniae ATCC 49619
# Procedure, shortened: as §1
# [1] = test system: S. pneumoniae erm B + mef A genotype
# Procedure, shortened: as §1
# [2] = test system: S. pneumoniae erm B + tet(M,O) genotype; conditions: Streptococcus pneumoniae
# Procedure, shortened: as §1
# [3] = test system: S. pneumoniae mef A genotype (first strain so labelled)
# Procedure, shortened: as §1
# [4] = test system: S. pneumoniae mef A genotype (second strain so labelled)
# Procedure, shortened: as §1
# S. pyogenes ATCC 19615 = test system: S. pyogenes ATCC 19615
# [5] = test system: S. pyogenes Macrolide-resistant
# E. faecalis ATCC 29212 = test system: E. faecalis ATCC 29212
# [6] = test system: E. faecalis Vancomycin-resistant
# A. baumannii ATCC 19606 = test system: A. baumannii ATCC 19606
# [7] = test system: A. baumannii imipenem-resistant
# [8] = test system: A. baumannii chromosomal class C
# A. baumannii IMP-4 = test system: A. baumannii IMP-4
# K. pneumoniae ATCC 10031 = test system: K. pneumoniae ATCC 10031
# K. pneumoniae KPC-2 = test system: K. pneumoniae KPC-2
# K. pneumoniae SHV-12 = test system: K. pneumoniae SHV-12
# P. aeruginosa ATCC 27853 = test system: P. aeruginosa ATCC 27853
# [9] = test system: P. aeruginosa HPA101-1477
# [10] = test system: H. influenzae Erythro >4, Azithro 1; conditions: Haemophilus influenzae; read-out: MIC
# From the text: MIC data was collected for the novel macrolides that this platform has produced against over 21 unique strains of B. subtilis, E. coli, S. aureus, S. pneumoniae, and H. influenzae, including several multidrug-resistant strains, with a special focus on macrolide resistant mechanisms (vide supra). […] CLSI standard procedures for broth dilution MIC determination were used. […] These genotypes can be constitutive or inducible.
# [11] = Escherichia coli, ATCC25922, E. coli ATCC 25922 (MP-4), read-out: MIC
# [12] = Escherichia coli, CTXM14, read-out: MIC
# [13] = Escherichia coli, NDM1, read-out: MIC
# [14] = Haemophilus influenzae, read-out: MIC
# [15] = Klebsiella pneumoniae, TEM10, read-out: MIC
# [16] = Staphylococcus aureus, ATCC29213, S. aureus ATCC 29213 (MP-12), read-out: MIC
# [17] = Staphylococcus aureus, S. aureus MRSA: USA100 (MP-618 UNT-096), read-out: MIC
# [18] = Staphylococcus aureus, S. aureus MRSA: USA300 (MP-549, msr(a)), read-out: MIC
# [19] = Staphylococcus aureus, S. aureus USA600, GISA (MP-619 UNT-120), read-out: MIC
# [20] = Staphylococcus aureus, S. aureus erm A genotype (MP-620 UNT-146), read-out: MIC
# [21] = Streptococcus pneumoniae, ATCC49619, S. pneumoniae ATCC 49619 (MP-21), read-out: MIC
# [22] = Streptococcus pneumoniae, first strain (MP-626 UNT-038)
# [23] = Streptococcus pneumoniae, second strain (MP-627 UNT-039), read-out: MIC
# [24] = Streptococcus pyogenes, ATCC19615, S. pyogenes ATCC 19615 (MP-19), read-out: MIC
# [25] = Streptococcus pyogenes, S. pyogenes Macrolide-resistant (MP-625 UNT-014), read-out: MIC
# [26] = Enterococcus faecalis, ATCC29212, E. faecalis ATCC 29212 (MP-24), read-out: MIC
# [27] = Enterococcus faecalis, E. faecalis Vancomycin-resistant (UNT-039), read-out: MIC
# [28] = Acinetobacter baumannii, ATCC19606, A. baumannii ATCC 19606 (MP-15), read-out: MIC
# [29] = Acinetobacter baumannii, read-out: MIC
# [30] = Acinetobacter baumannii, IMP4, read-out: MIC
# [31] = Klebsiella pneumoniae, ATCC10031, K. pneumoniae ATCC 10031 (MP-14), read-out: MIC
# [32] = Klebsiella pneumoniae, KPC2, read-out: MIC
# [33] = Klebsiella pneumoniae, SHV12, read-out: MIC
# [34] = Pseudomonas aeruginosa, ATCC27853, P. aeruginosa ATCC 27853 (MP-3), read-out: MIC
# [35] = Pseudomonas aeruginosa, HPA1011477, read-out: MIC
compound,measurement,setting,value
"CC[C@H]1OC(=O)[C@H](C)[C@@H](O[C@H]2C[C@@](C)(OC)[C@@H](O)[C@H](C)O2)[C@H](C)[C@@H](O[C@@H]2O[C@H](C)C[C@H](N(C)C)[C@H]2O)[C@](C)(O)C[C@@H](C)CN(C)[C@H](C)[C@@H](O)[C@]1(C)O [Azithro, azithromycin, reference compound]",MIC,"E. coli ATCC 25922; E. coli ATCC 25922, Gram-negative",4 µg/mL
same,MIC,E. coli ATCC 25922; [11],4 µg/mL
same,MIC,E. coli CTX-M-14; [12],> 32 µg/mL
same,MIC,E. coli CTX-M-14; Gram-negative,> 32 µg/mL
same,MIC,E. coli NDM-1; [13],> 32 µg/mL
same,MIC,E. coli NDM-1; Gram-negative,> 32 µg/mL
same,MIC,"E. coli TEM-1; E. coli TEM-1, Gram-negative",1 µg/mL
same,MIC,"E. coli TEM-1; Escherichia coli, TEM1",1 µg/mL
same,MIC,H. influenzae ATCC49247; Gram-negative,0.5 µg/mL
same,MIC,H. influenzae ATCC49247; [14],0.5 µg/mL
same,MIC,K. pneumoniae TEM-10; Gram-negative,8 µg/mL
same,MIC,K. pneumoniae TEM-10; [15],8 µg/mL
same,MIC,"S. aureus ATCC 29213; S. aureus ATCC 29213, Gram-positive",1 µg/mL
same,MIC,S. aureus ATCC 29213; [16],1 µg/mL
same,MIC,"S. aureus MRSA: USA100; S. aureus MRSA: USA100, Gram-positive",> 32 µg/mL
same,MIC,S. aureus MRSA: USA100; [17],> 32 µg/mL
same,MIC,"S. aureus MRSA: USA300; S. aureus MRSA: USA300, Gram-positive",32 µg/mL
same,MIC,S. aureus MRSA: USA300; [18],32 µg/mL
same,MIC,"S. aureus USA600, GISA; S. aureus USA600, GISA, Gram-positive",> 32 µg/mL
same,MIC,"S. aureus USA600, GISA; [19]",> 32 µg/mL
same,MIC,"S. aureus erm A genotype; S. aureus erm A genotype, Gram-positive",> 32 µg/mL
same,MIC,S. aureus erm A genotype; [20],> 32 µg/mL
same,MIC,"S. pneumoniae ATCC 49619; S. pneumoniae ATCC 49619, Gram-positive",< 0.0312 µg/mL
same,MIC,S. pneumoniae ATCC 49619; [21],< 0.0312 µg/mL
same,MIC,"[1]; S. pneumoniae erm B + mef A genotype, Gram-positive",> 32 µg/mL
same,MIC,[1]; Streptococcus pneumoniae,> 32 µg/mL
same,MIC,[2],< 0.0312 µg/mL
same,MIC,[3]; [22],0.25 µg/mL
same,MIC,"[3]; first of two rows so labelled, Gram-positive",0.25 µg/mL
same,MIC,[4]; Gram-positive,4 µg/mL
same,MIC,[4]; [23],4 µg/mL
same,MIC,"S. pyogenes ATCC 19615; S. pyogenes ATCC 19615, Gram-positive",< 0.0312 µg/mL
same,MIC,S. pyogenes ATCC 19615; [24],< 0.0312 µg/mL
same,MIC,"[5]; S. pyogenes Macrolide-resistant, Gram-positive",2 µg/mL
same,MIC,[5]; [25],2 µg/mL
same,MIC,"E. faecalis ATCC 29212; E. faecalis ATCC 29212, Gram-positive",4 µg/mL
same,MIC,E. faecalis ATCC 29212; [26],4 µg/mL
same,MIC,"[6]; E. faecalis Vancomycin-resistant, Gram-positive",> 32 µg/mL
same,MIC,[6]; [27],> 32 µg/mL
same,MIC,"A. baumannii ATCC 19606; A. baumannii ATCC 19606, Gram-negative",16 µg/mL
same,MIC,A. baumannii ATCC 19606; [28],16 µg/mL
same,MIC,[7]; [29],8 µg/mL
same,MIC,[7]; Gram-negative,8 µg/mL
same,MIC,[8]; [29],32 µg/mL
same,MIC,[8]; Gram-negative,32 µg/mL
same,MIC,A. baumannii IMP-4; [30],> 32 µg/mL
same,MIC,A. baumannii IMP-4; Gram-negative,> 32 µg/mL
same,MIC,"K. pneumoniae ATCC 10031; K. pneumoniae ATCC 10031, Gram-negative",4 µg/mL
same,MIC,K. pneumoniae ATCC 10031; [31],4 µg/mL
same,MIC,K. pneumoniae KPC-2; Gram-negative,> 32 µg/mL
same,MIC,K. pneumoniae KPC-2; [32],> 32 µg/mL
same,MIC,K. pneumoniae SHV-12; Gram-negative,16 µg/mL
same,MIC,K. pneumoniae SHV-12; [33],16 µg/mL
same,MIC,"P. aeruginosa ATCC 27853; P. aeruginosa ATCC 27853, Gram-negative",> 32 µg/mL
same,MIC,P. aeruginosa ATCC 27853; [34],> 32 µg/mL
same,MIC,[9]; Gram-negative,> 32 µg/mL
same,MIC,[9]; [35],> 32 µg/mL
CC[C@H]1OC(=O)[C@H](C)C(=O)[C@H](C)[C@@H](O[C@@H]2OC(C)CC(N(C)C)C2O)[C@](C)(OC)C[C@@H](C)C(=O)C[C@H]2N(CCCCn3cc(-c4cccc(N)c4)nn3)C(=O)O[C@]12C (stereo partly drawn) [FSM-21535],MIC,E. coli ATCC 25922; [11],> 32 µg/mL
same,MIC,E. coli CTX-M-14; [12],> 32 µg/mL
same,MIC,E. coli NDM-1; [13],> 32 µg/mL
same,MIC,"E. coli TEM-1; Escherichia coli, TEM1",> 32 µg/mL
same,MIC,H. influenzae ATCC49247; [14],4 µg/mL
same,MIC,K. pneumoniae TEM-10; [15],> 32 µg/mL
same,MIC,S. aureus ATCC 29213; [16],16 µg/mL
same,MIC,S. aureus MRSA: USA100; [17],> 32 µg/mL
same,MIC,S. aureus MRSA: USA300; [18],32 µg/mL
same,MIC,"S. aureus USA600, GISA; [19]",> 32 µg/mL
same,MIC,S. aureus erm A genotype; [20],> 32 µg/mL
same,MIC,S. pneumoniae ATCC 49619; [21],≤ 0.0312 µg/mL
same,MIC,[1]; Streptococcus pneumoniae,8 µg/mL
same,MIC,[2],≤ 0.0312 µg/mL
same,MIC,[3]; [22],0.0625 µg/mL
same,MIC,[4]; [23],0.5 µg/mL
same,MIC,S. pyogenes ATCC 19615; [24],≤ 0.0312 µg/mL
same,MIC,[5]; [25],0.5 µg/mL
same,MIC,E. faecalis ATCC 29212; [26],≤ 0.0312 µg/mL
same,MIC,[6]; [27],> 32 µg/mL
same,MIC,A. baumannii ATCC 19606; [28],> 32 µg/mL
same,MIC,[7]; [29],> 32 µg/mL
same,MIC,[8]; [29],> 32 µg/mL
same,MIC,A. baumannii IMP-4; [30],> 32 µg/mL
same,MIC,K. pneumoniae ATCC 10031; [31],4 µg/mL
same,MIC,K. pneumoniae KPC-2; [32],> 32 µg/mL
same,MIC,K. pneumoniae SHV-12; [33],> 32 µg/mL
same,MIC,P. aeruginosa ATCC 27853; [34],> 32 µg/mL
same,MIC,[9]; [35],> 32 µg/mL
same,MIC,[10],8 µg/mL
